Experimental data: the supplement of paper PMC10307832

The cell lines below were run with Cc1nc(NC(=O)N2CCC[C@H]2C(N)=O)sc1-c1ccnc(C(C)(C)C(F)(F)F)c1 [Alpelisib] + CC(C)C[C@H](NC(=O)[C@H](Cc1ccccc1)NC(=O)c1cnccn1)B(O)O [Bortezomib] (partner 0.002 µM) (assay: relative viability (nuclei count vs DMSO), 5 days (fraction); higher = more cells survive). Settings: first compound 0.04 µM.
Outline: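 Relative viability was taken as the ratio of nuclei in treated wells to nuclei in vehicle wells. Lung cancer cell lines in 1536-well plates received compounds by pin tool one day after seeding, either one drug alone or a fixed anchor-drug dose plus five library-drug doses (not always all listed) in √10 steps. Nuclei were counted on 4× images after 5 days of treatment, and values are medians of duplicate plates.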

Cell Line | relative viability
PC-14 | 0.801
NCI-H1299 | 1.05
NCI-H1437 | 0.504
HOP-62 | 0.749
HCC-44 | 0.882
BEN | 0.793
LOU-NH91 | 0.478
NCI-H661 | 0.668
NCI-H1651 | 0.913
PC-3 [JPC-3] | 0.873
SW 1573 | 0.898
NCI-H2405 | 0.997
NCI-H1703 | 0.348
NCI-H1993 | 1.09
ChaGo-K-1 | 0.921
NCI-H1355 | 1.15
HCC-366 | 0.974
NCI-H1915 | 0.991
NCI-H838 | 0.692
A-427 | 0.889
NCI-H2009 | 1.03
ABC-1 | 0.312
Calu-6 | 0.952
NCI-H1792 | 0.927
EBC-1 | 0.574
IA-LM | 0.985

Same assay, conditions: first compound 0.1265 µM

Cell Line | relative viability
NCI-H2126 | 1.06
EPLC-272H | 0.911
NCI-H1755 | 0.972
NCI-H2023 | 0.952
NCI-H1650 | 0.22
H3255 | 0.648
NCI-H1975 | 0.318
PC-14 | 0.882
NCI-H1299 | 1.08
NCI-H1437 | 0.515
HOP-62 | 0.397
HCC-44 | 0.873
BEN | 0.733
LOU-NH91 | 0.457
NCI-H661 | 0.933
NCI-H1651 | 0.921

Cell Line | relative viability
PC-3 [JPC-3] | 0.901
SW 1573 | 0.947
NCI-H2405 | 0.835
NCI-H1703 | 0.208
NCI-H1993 | 1.03
NCI-H1355 | 1.23
HCC-366 | 1.05
NCI-H1915 | 1.04
NCI-H838 | 0.482
A-427 | 0.843
NCI-H2009 | 0.982
ABC-1 | 0.295
Calu-6 | 0.827
NCI-H1792 | 0.888
EBC-1 | 0.559
IA-LM | 0.794

Same assay, conditions: first compound 0.4 µM

Cell Line | relative viability
NCI-H2126 | 1.03
EPLC-272H | 1.13
NCI-H1755 | 1.06
NCI-H2023 | 0.942
NCI-H1650 | 0.185
H3255 | 1.2
NCI-H1975 | 0.355
PC-14 | 1.16
NCI-H1299 | 1.03
NCI-H1437 | 0.497
HOP-62 | 0.986
HCC-44 | 0.937
BEN | 0.807
LOU-NH91 | 0.51
NCI-H661 | 0.833
NCI-H1651 | 0.913
PC-3 [JPC-3] | 0.766

Cell Line | relative viability
SW 1573 | 1
NCI-H2405 | 0.927
NCI-H1703 | 0.231
NCI-H1993 | 1.02
ChaGo-K-1 | 1.07
NCI-H1355 | 1.29
HCC-366 | 1.02
NCI-H1915 | 0.947
NCI-H838 | 0.668
A-427 | 0.978
NCI-H2009 | 1.24
ABC-1 | 0.268
Calu-6 | 1.1
NCI-H1792 | 1.05
EBC-1 | 0.584
IA-LM | 0.794

Same assay, conditions: first compound 1.265 µM

Cell Line | relative viability
NCI-H2126 | 0.974
EPLC-272H | 0.904
NCI-H1755 | 0.886
NCI-H2023 | 0.57
NCI-H1650 | 0.176
H3255 | 0.48
NCI-H1975 | 0.238
PC-14 | 0.773
NCI-H1299 | 1.02
NCI-H1437 | 0.49
HOP-62 | 0.811
HCC-44 | 0.788
BEN | 0.761
LOU-NH91 | 0.537
NCI-H661 | 0.593
NCI-H1651 | 0.886
PC-3 [JPC-3] | 0.768

Cell Line | relative viability
SW 1573 | 0.72
NCI-H2405 | 0.83
NCI-H1703 | 0.223
NCI-H1993 | 0.791
ChaGo-K-1 | 0.839
NCI-H1355 | 1.09
HCC-366 | 0.82
NCI-H1915 | 0.887
NCI-H838 | 0.782
A-427 | 0.849
NCI-H2009 | 0.89
ABC-1 | 0.363
Calu-6 | 0.852
NCI-H1792 | 0.851
EBC-1 | 0.428
IA-LM | 0.698

Same assay, conditions: first compound 4 µM

Cell Line | relative viability
NCI-H2126 | 0.81
EPLC-272H | 0.622
NCI-H1755 | 0.838
NCI-H2023 | 0.601
NCI-H1650 | 0.169
H3255 | 0.444
NCI-H1975 | 0.189
PC-14 | 0.747
NCI-H1299 | 0.966
NCI-H1437 | 0.508
HOP-62 | 0.807
HCC-44 | 0.683
BEN | 0.697
LOU-NH91 | 0.474
NCI-H661 | 0.651
NCI-H1651 | 0.745
PC-3 [JPC-3] | 0.66

Cell Line | relative viability
SW 1573 | 0.651
NCI-H2405 | 0.696
NCI-H1703 | 0.234
NCI-H1993 | 0.489
ChaGo-K-1 | 0.791
NCI-H1355 | 0.961
HCC-366 | 0.419
NCI-H1915 | 0.805
NCI-H838 | 0.487
A-427 | 0.893
NCI-H2009 | 0.859
ABC-1 | 0.266
Calu-6 | 1.03
NCI-H1792 | 0.315
EBC-1 | 0.423
IA-LM | 0.728
